One data set has as its system TLR3 signal. The data set is described as follows: Poly(I:C)-activated TLR3 signaling in RAW264.7 cells. The format is cell-based, mouse. Particulars: 1 μM; Poly-IC 25 μg/ml; 24 hrs.
For another data set, the system named is CX3CL1. The data set is described as follows: CX3CL1 (fracktalkine) ELISA in P rat NAc. It is filed as in vivo. Particulars: 15 mg/kg IP, 45 min. As for the experimental part: Rats were administered VEH or 3α,5α-THP (15 mg/kg, IP) and sacrificed after 45 min. CX3CL1 was measured by ELISA (Raybiotech—ERC-CX3CL1-CL; Norcross, Ga., USA) as per manufacturer's instructions. (Two-way ANOVA: F (1,28)=13.63, P<0.001, Tukey's multiple comparisons test *P<0.05).
(§1) ELISA. Brain tissue micropunches were lysed with Cellyte MT and the extracts were assayed for protein content by the BCA procedure (Pierce) and for MCP-1 using the rat MCP-1 ELISA kit (Raybiotech—ERC-MCP-1-CL; Norcross, Ga., USA) or for fracktalkine using the rat fractalkine ELISA kit (Raybiotech—ERC-CX3CL1-CL; Norcross, Ga., USA) as per manufacturer's instructions.
Activation of TLR4 signaling can result in the production of both pro-inflammatory and anti-inflammatory cytokines in P rat brain, but the factors that determine the outcome of TLR4 activation are unknown. […] 3α,5α-THP administration to naïve female and male P rats enhanced the expression of CX3CL1 by 90% in female rat NAc and 34% in male rat NAc. No sex difference in the effect of 3α,5α-THP was observed.

In a further data set the test system is TLR7 signal in P rat NAc. The data set is described as follows: TLR7 signal in P rat NAc after systemic 3α,5α-THP (immunoblot). It is filed as in vivo. Particulars: 15 mg/kg I.P. The protocol:
Neuropsychopharmacology 40(8): 1549-1559; Aurelian L, et al. (2016). Transl Psychiatry 6: e815). Systemic administration of 3α,5α-THP (15 mg/kg, I.P.) to naïve female P rats inhibited the expression of TLR7 (40%), pIRF7 (40%), and TRAF6 (40%) in P rat NAc, with no effect on IRF3. Similar results were obtained in a separate study of the male P rats.
Next, potential sex differences were directly examined in baseline or 3α,5α-THP inhibition of MCP-1 and pIRF7 expression in female vs. male P rat NAc (FIG. 9). […] Systemic administration of 3α,5α-THP (15 mg/kg, I.P.) to naïve female and male P rats inhibited the expression of MCP-1 (40% in female rat NAc; 25% in male rat NAc). Likewise, 3α,5α-THP administration to naïve female and male P rats inhibited the expression of pIRF7 to the same extent, (55% in female rat NAc; 55% in male rat NAc).

The next data set relates to TLR2 signaling. As to the kind of experiment: Pam3Cys-activated TLR2 signaling in RAW264.7 cells. The format is cell-based, mouse. The protocol: Because multiple TLRs signal through MD-2, […] and MyD-88, the specificity of the neurosteroid 3α,5α-THP on TLR2, TLRS and TLR7 signal activation was examined in RAW264.7 ceils (FIG. 7). Pam3Cys (10 μg/ml) activated TLR2 signaling, evidenced by increases in pCREB, pERK1/2, TRAF6 and pATF-2, that were sustained for 24 hrs and inhibited by 3α,5α-THP (1 μM) (50-60% compared to vehicle).

The next data set relates to MCP-1. As to the kind of experiment: MCP-1 ELISA in VTA, amygdala and hypothalamus of female and male P rats. The format is in vivo, rat. Particulars: 15 mg/kg IP. As for the experimental part:
(Two-way ANOVA: F (1,28)=20.92, P<0.0001), and Hypothalamus [female (27%) and male (32%)] (Two-way ANOVA: F (1,28)=31.55, P<0.0001).
as §1
To determine if the effects of 3α,5α-THP on MCP-1 were selective for P rat NAc, the effects of 3α,5α-THP administration in VTA, Amygdala and Hypothalamus of both female and male P rats was examined.

The nature of data set [1]: 3α,5α-THP radioimmunoassay of RAW264.7 cell culture media (conversion of pregnenolone). The format is in vitro ADME, mouse. The protocol: 3α,5α-THP Radioimmunoassay (RIA), 3α,5α-THP concentrations in the RAW264.7 cell media were measured by radioimmunoassay as described elsewhere (VanDoren et al, 2000), modified for use with cell media (Cook et al, 2014), Briefly, 3α,5α-THP was extracted from ceil media three times with 3 ml of ethyl acetate and spiked with 1000 counts per minute of [^3H]3α,5α-THP for recovery. The extracts were purified using solid phase silica columns (Burdick and Jackson, Muskegon, Mich.) and used for the assay (run in duplicate) and for recovery measurement. Steroid levels in the samples were extrapolated from a concurrently run standard curve and corrected for their respective extraction efficiencies. The 3α,5α-THP antibody (1:500) was provided by the late Dr. Robert Purdy at Scripps Research Institute. […] The validity of the assay has been verified by gas chromatography mass spectrometry determinations (Porcu et al, 2010), 3α,5α-THP values are expressed as ng/ml of cell media.
Since pregnenolone is a precursor for 3α,5α-THP, the possibility that pregnenolone may have been converted in the RAW264.7 cells was considered by analysis of 3α,5α-THP levels in the cell culture media at the time of cell harvest, 3α,5α-THP was detected at less than 0.69±0.11 nmol/L, indicative of less than 0.1% conversion of 1.0 μM pregnenolone.

Each structure is given as a SMILES string. Several values for one entry are separate records, joined by “and”; a condition that tells them apart may be missing. Equal values may be shown once.

As to `CC(=O)[C@H]1CC[C@H]2[C@@H]3CC[C@H]4C[C@H](O)CC[C@]4(C)[C@H]3CC[C@]12C` [3α,5α-THP, (3α,5α)3-hydroxypregnan-20-one], the “effect of Poly(I:C) on IP-10 (CXCL10) expression” value in the data set on TLR3 signal is listed as “not altered”. Besides, the “enhancement of CX3CL1 expression in NAc” value in the data set on CX3CL1 (naïve female P rats) is 90%. For the same compound, the “enhancement of CX3CL1 expression in NAc” value with CX3CL1 (naïve male P rats) is recorded as 34%. In addition, the “inhibition of TRAF6” value with TLR7 signal in P rat NAc (male P rats) amounted to 45%. In the data set with TLR7 signal in P rat NAc (naïve female P rats), the “effect on IRF3 in NAc” value is given as “no effect”; the “inhibition of TLR7 expression in NAc” value turned out to be 40%; the “inhibition of TRAF6 expression in NAc” value is reported as 40%; the “inhibition of pIRF7 expression in NAc” value was 40% and 55%. In the data set on TLR7 signal in P rat NAc (naïve male P rats), the “inhibition of pIRF7 expression in NAc” value was found to be 55%. In addition, the “effect of Pam3Cys on pCREB, pERK1/2, pATF2 and TRAF6” value in the data set on TLR2 signaling (1 μM, Pam3Cys 10 μg/ml, harvested after 24 hrs) is “completely inhibited”. Moreover, the inhibition at 1 µM with TLR2 signaling (Mus musculus, RAW264.7, Pam3Cys 10 μg/ml, 24 hrs, compared to vehicle, read-out: inhibition of Pam3Cys-induced increases in pCREB, pERK1/2, TRAF6 and pATF-2) was 50 to 60%. Besides, in the data set on MCP-1 (female P rats), the “reduction of MCP-1 levels in Amygdala” value is reported as 47%, the “reduction of MCP-1 levels in Hypothalamus” value is on record as 27% and the “reduction of MCP-1 levels in VTA” value was 27%. In the data set with MCP-1 (male P rats), the “reduction of MCP-1 levels in Amygdala” value is on record as 58%, the “reduction of MCP-1 levels in Hypothalamus” value came to 32% and the “reduction of MCP-1 levels in VTA” value is 21%.

As for `CC(=O)[C@H]1CC[C@H]2[C@@H]3CC=C4C[C@@H](O)CC[C@]4(C)[C@H]3CC[C@]12C` [pregnenolone], the “conversion of pregnenolone to 3α,5α-THP” value in data set [1] (1.0 μM pregnenolone, RAW264.7 cells) is “less than 0.1%”. Further, the “3α,5α-THP level in the cell culture media at the time of cell harvest” value in data set [1] (RAW264.7 cells treated with 1.0 μM pregnenolone) is “less than 0.69±0.11 nmol/L”.

For the origin of these results see US20210205329A1 (The University of North Carolina at Chapel Hill, priority 2018, published 2021).
